According to ChEMBL document CHEMBL1148983, “A diketopiperazine dimer from a marine-derived isolate of Aspergillus niger” (J Nat Prod, 2004):

How the values were obtained:
[1] = Inhibition of mammalian 5'-Cap- RNA dependent translation in human HeLa cells after 60 mins by luciferase reporter gene assay; type: functional, cell-based; details: 1 h
[2] = Inhibition of viral IRES-mediated translation in human HeLa cells after 60 mins by luciferase reporter gene assay; type: functional, cell-based; details: 1 h

Structure (SMILES)	IC50 [1] [µM]	IC50 [2] [µM]
COc1cc(O)cc2cc3oc(C)cc(=O)c3c(O)c12	80	44
COc1cc(O)cc2cc(O)c3c(=O)cc(C)oc3c12	> 100	> 100
CC(C)C[C@H]1NC(=O)[C@H]2C[C@@]3([C@@]45C[C@@H]6C(=O)N[C@H](C(C)C)C(=O)N6[C@@H]4Nc4ccccc45)c4ccccc4N[C@H]3N2C1=O	> 100	> 100
COc1cc(C)c2c(OC)cc(=O)oc2c1-c1c(O)cc(C)c2c(OC)cc(=O)oc12 [DEMETHYLKOTANIN]	> 100	> 100
